Laboratory results taken from patent publication US20080063628A1, “METHODS TO PROMOTE CELL DIFFERENTIATION” (priority 2006, published 2008).

Legend:
[1] = tested on: amniotic fluid-derived cell line; test: Two sequential low dose trichostatin A treatments, gene expression by RT-PCR (Example 7); format: cell-based, human; details: for Gata1 gene expression / HNF (HNF-3 beta) gene expression / Insulin gene expression / Pdx-1 gene expression / sox17 gene expression: 500 nM 0-24 h + 96-120 h
Protocol: Several cell lines obtained from different amniotic fluid specimens (see Example 14) and pancreas donors (see Example 13) were tested with similar results. Two lines at similar passage number but derived from different amniotic fluid specimens are shown in Table VII-A and Table VII-B for this example. One of these cell lines was also used in examples 2 and 4 above. In addition, this example also contains comparison data in Table VII-C and Table VII-D for a single pancreatic-derived stromal line grown to early and late passage number.
Amniotic fluid derived cells or pancreatic-derived stromal cells were seeded into 24-well tissue culture plates at a density of 5000/cm^2 and cultured in AMNIOMAX (Invitrogen) or DMEM with 10% FBS respectively under standard cell culture conditions until confluent. After the cells reached confluency, amniotic fluid derived cells were treated at time 0 hours with a dose of 500 nM trichostatin A, and pancreatic-derived stromal cells were treated with a dose of 1.25 μM trichostatin A solubilized in DMSO and medium. At time 24 hours, cell cultures underwent a complete medium change to remove all traces of trichostatin A. At time 96 hours, cell cultures were re-fed with fresh medium and received a second dose of trichostatin A at the same concentration as used previously. At time 120 hours, cell cultures again underwent a complete medium change and were cultured for an additional 24 hours or […] total incubation time.
Samples were taken daily for RT-PCR at the times indicated in Table VII-A to D. The culture medium was removed, and samples were rinsed in PBS then collected in RLT with β-mercaptoethanol (Qiagen). RNA was purified using the RNeasy Mini Kit (Qiagen) and RNA quantity and quality were determined using a spectrophotometer. cDNA was made using the iScript cDNA synthesis kit (BioRad).
Samples of 20 ng cDNA were used in each reaction to determine the expression levels of the following genes in amniotic fluid-derived cells: Gata1, HNF-3 beta, Pdx-1, insulin, and Sox17. Similarly, samples of 20 ng cDNA were used in each reaction to determine the expression level of the following genes in pancreatic-derived cells: glucagon, HNF-3 beta, insulin and Pdx-1. Real-Time PCR was performed on the Applied Biosystems 7500, and data was analyzed using the accompanying software according to the methods described in Example 15.
Real-time PCR amplifcation and quantitative analysis. Unless otherwise stated, all reagents were purchased from Applied Biosystems. Real-time PCR reactions were performed using the ABI PRISM™ 7500 Sequence Detection System. TAQMAN™ FAST UNIVERSAL PCR MASTER MIX™ (ABI, CA) was used with 20 ng of reverse transcribed RNA in a total reaction volume of 20 μl. Each cDNA sample was run in duplicate to allow correction of pipetting errors. Primers and FAM-labeled TAQMAN™ probes were used at concentrations of 200 nM. The level of expression for each target gene was normalized using the pre-developed Applied Biosystem's human glyceraldehyde-3-phosphate dehydrogenase (GAPDH) endogenous control kit. Primers and probes were designed using either ABI PRISM PRIMER EXPRESS™ software or a pre-developed ABI gene analysis kit. For each gene, either one of the primers or the probe were designed to be exon-boundary spanning. This eliminated the possibility of the primers/probe binding to any genomic DNA present. The primer and probe sets are listed as follows: Pdx-1 (Hs00426216), Insulin (Hs00355773), glucagon (Hs00174967), and FoxA2 (HNF 3-beta) (Hs00232764). The remaining primers were designed using the PRIMERS program (ABI, CA). After an initial 95° C. incubation for 20 sec, samples were cycled 40 times in two stages: a denaturation step at 95° C. for 3 sec, followed by an annealing/extension step at 60° C. for 30 sec. […]

[2] = tested on: second amniotic fluid-derived cell line; test: as above; format: cell-based, human; details: 0.5 μM, after 72 hours, remainder of the experiment

**Q.** Which “Insulin RT-PCR detection cycle” value ([1]; 0.5 μM, by 48 hours (after removal at 24 h)) does the source give for `CC(/C=C/C(=O)NO)=C\[C@@H](C)C(=O)c1ccc(N(C)C)cc1` [trichostatin A] here?
**A.** Its value is 36 cycles.

**Q.** And the “HNF-3 beta RT-PCR detection cycle” value ([1]; 0.5 μM, following the first treatment)?
**A.** The value was 33 cycles.

**Q.** What about the “HNF-3 beta RT-PCR detection cycle” value ([1]; 0.5 μM, following the second treatment) of the same compound?
**A.** The value was 37 cycles.

**Q.** And the “Pdx-1 RT-PCR detection cycle” value ([1]; 0.5 μM, for 24 hours following the addition)?
**A.** Its value is 37 cycles.

**Q.** What about the Gata1 gene expression ([1]; 24 hrs) of the same compound?
**A.** The Gata1 gene expression was “nd (not detectable at >40 cycles by RT-PCR)”.

**Q.** And the “HNF (HNF-3 beta) gene expression” value ([1]; 24 hrs)?
**A.** Its value is “+++ (detectable at less than 35 cycles by RT-PCR with SE less than 0.9)”.

**Q.** What about the Insulin gene expression ([1]; 24 hrs) of the same compound?
**A.** Its Insulin gene expression is “nd (not detectable at >40 cycles by RT-PCR)”.

**Q.** What about the Pdx-1 gene expression ([1]; 24 hrs) of the same compound?
**A.** The Pdx-1 gene expression was “+ (detectable between 35 and 40 cycles by RT-PCR)”.

**Q.** And the sox17 gene expression ([1]; 24 hrs)?
**A.** Its sox17 gene expression is “+++ (detectable at less than 35 cycles by RT-PCR with SE less than 0.9)”.

**Q.** And the Gata1 gene expression ([1]; 48 hrs)?
**A.** The Gata1 gene expression was “nd (not detectable at >40 cycles by RT-PCR)”.

**Q.** What about the “HNF (HNF-3 beta) gene expression” value ([1]; 48 hrs) of the same compound?
**A.** The value was “+++ (detectable at less than 35 cycles by RT-PCR with SE less than 0.9)”.

**Q.** What about the Insulin gene expression ([1]; 48 hrs) of the same compound?
**A.** Its Insulin gene expression is “+ (detectable between 35 and 40 cycles by RT-PCR)”.

**Q.** What about the Pdx-1 gene expression ([1]; 48 hrs) of the same compound?
**A.** The Pdx-1 gene expression was “nd (not detectable at >40 cycles by RT-PCR)”.

**Q.** And the sox17 gene expression ([1]; 48 hrs)?
**A.** The sox17 gene expression was “+++ (detectable at less than 35 cycles by RT-PCR with SE less than 0.9)”.

**Q.** What about the Gata1 gene expression ([1]; 72 hrs) of the same compound?
**A.** Its Gata1 gene expression is “nd (not detectable at >40 cycles by RT-PCR)”.

**Q.** And the “HNF (HNF-3 beta) gene expression” value ([1]; 72 hrs)?
**A.** The value was “+ (detectable between 35 and 40 cycles by RT-PCR)”.

**Q.** And the Insulin gene expression ([1]; 72 hrs)?
**A.** The Insulin gene expression was “+ (detectable between 35 and 40 cycles by RT-PCR)”.

**Q.** What about the Pdx-1 gene expression ([1]; 72 hrs) of the same compound?
**A.** The Pdx-1 gene expression was “nd (not detectable at >40 cycles by RT-PCR)”.

**Q.** What about the sox17 gene expression ([1]; 72 hrs) of the same compound?
**A.** Its sox17 gene expression is “+++ (detectable at less than 35 cycles by RT-PCR with SE less than 0.9)”.

**Q.** What about the Gata1 gene expression ([1]; 96 hrs) of the same compound?
**A.** Its Gata1 gene expression is “nd (not detectable at >40 cycles by RT-PCR)”.

**Q.** And the “HNF (HNF-3 beta) gene expression” value ([1]; 96 hrs)?
**A.** Its value is “nd (not detectable at >40 cycles by RT-PCR)”.

**Q.** And the Insulin gene expression ([1]; 96 hrs)?
**A.** Its Insulin gene expression is “+ (detectable between 35 and 40 cycles by RT-PCR)”.

**Q.** And the Pdx-1 gene expression ([1]; 96 hrs)?
**A.** The Pdx-1 gene expression was “nd (not detectable at >40 cycles by RT-PCR)”.

**Q.** What about the sox17 gene expression ([1]; 96 hrs) of the same compound?
**A.** The sox17 gene expression was “+++ (detectable at less than 35 cycles by RT-PCR with SE less than 0.9)”.

**Q.** What about the Gata1 gene expression ([1]; 120 hrs) of the same compound?
**A.** Its Gata1 gene expression is “nd (not detectable at >40 cycles by RT-PCR)”.

**Q.** And the “HNF (HNF-3 beta) gene expression” value ([1]; 120 hrs)?
**A.** The value was “+ (detectable between 35 and 40 cycles by RT-PCR)”.

**Q.** What about the Insulin gene expression ([1]; 120 hrs) of the same compound?
**A.** The Insulin gene expression was “+ (detectable between 35 and 40 cycles by RT-PCR)”.

**Q.** What about the Pdx-1 gene expression ([1]; 120 hrs) of the same compound?
**A.** The Pdx-1 gene expression was “nd (not detectable at >40 cycles by RT-PCR)”.

**Q.** And the sox17 gene expression ([1]; 120 hrs)?
**A.** Its sox17 gene expression is “+++ (detectable at less than 35 cycles by RT-PCR with SE less than 0.9)”.

**Q.** And the Gata1 gene expression ([1]; 144 hrs)?
**A.** The Gata1 gene expression was “nd (not detectable at >40 cycles by RT-PCR)”.

**Q.** What about the “HNF (HNF-3 beta) gene expression” value ([1]; 144 hrs) of the same compound?
**A.** The value was “+ (detectable between 35 and 40 cycles by RT-PCR)”.

**Q.** And the Insulin gene expression ([1]; 144 hrs)?
**A.** The Insulin gene expression was “+ (detectable between 35 and 40 cycles by RT-PCR)”.

**Q.** And the Pdx-1 gene expression ([1]; 144 hrs)?
**A.** Its Pdx-1 gene expression is “nd (not detectable at >40 cycles by RT-PCR)”.

**Q.** And the sox17 gene expression ([1]; 144 hrs)?
**A.** The sox17 gene expression was “+++ (detectable at less than 35 cycles by RT-PCR with SE less than 0.9)”.

**Q.** What about the “HNF-3 beta RT-PCR detection cycle” value [2] of the same compound?
**A.** Its value is 37 cycles.
